3 molecules from patent US20250114462A1, “HYDROPHILIC FUNCTIONALIZED PARTICLES IN THE DELIVERY OF HYDROPHOBIC DRUGS” (NEW JERSEY INSTITUTE OF TECHNOLOGY, priority 2023, published 2025) can be followed below.

A short description of the series: In vitro dissolution profile (USP-42 paddle method). It counts as physicochemical. As to conditions: for 50% dissolution time (T50): composites with 0.5 to 1.0% of HFP. The protocol:
Dissolution measurements were carried out using USP-42 paddle method with Symphony 7100 Distek dissolution instrument. Agilent 8453 model UV-Visible spectrophotometer was used at a wavelength at 295.0 nm for the reference drug Griseofulvin standard absorbance measurements that calibrated to measure the formulation polymer incorporated drugs concentration and dissolution percentage estimation.

With `CC(=O)O[C@]1(C(C)=O)CC[C@H]2[C@@H]3C=C(C)C4=CC(=O)CC[C@]4(C)[C@H]3CC[C@@]21C` [Megestrol Acetate (MA), megestrol acetate], the Initial dissolution rate came to 84.1 µg/min and the “50% dissolution time (T50)” value worked out at 138.
`COc1ccc(-n2nc(C(N)=O)c3c2C(=O)N(c2ccc(N4CCCCC4=O)cc2)CC3)cc1` [Apixaban (APX), apixaban] returned an Initial dissolution rate of 74.3 µg/min.
As to `COC1=CC(=O)C[C@@H](C)[C@]12Oc1c(Cl)c(OC)cc(OC)c1C2=O` [Griseofulvin (GF), griseofulvin], the Initial dissolution rate turned out to be 110.3 µg/min and the “50% dissolution time (T50)” value is recorded as 40.
